Measurements as given in US20250339443A1, “METHOD FOR TREATING OR PREVENTING CALCIUM RELEASE-ACTIVATED CALCIUM CHANNEL OR DISCOIDIN DOMAIN RECEPTOR 2 RELATED DISORDERS OR CONDITIONS” (LumiSTAR Biotechnology, Inc., priority 2023, published 2025).

Columns and labels:
[1] = system: NRK49F cells; assay: Collagen alignment assay in FITC-conjugated collagen gel; assay type: cell-based, rat; details: 10 ng/ml TGF-β1, 10 μM, 5 days
Experimental: FIG. 2A, FIG. 2B, FIG. 2C, FIG. 2D, FIG. 2E, FIG. 2F, FIG. 2G-1, and FIG. 2G-2 display how WRG-28 and Av suppress TGF-β1-induced fibroblasts activation and the differentiation of pericytes into myofibroblasts. […] Each bar represents the mean #SEM. […] The protein levels of collagen 1a1 and α-SMA were assessed using Western blot analysis under various conditions. […] Each bar represents mean±SEM. […] The images were acquired using a confocal microscope (Olympus, MPE). FIG. 2G-1 and FIG. 2G-2 display the measurement of angles between collagen fibers and the cell membrane, conducted using Image J. At least five different images from each condition were analyzed. Each bar represents mean±SEM. In all graphs, *, **, and *** represent p-value <0.05, 0.01, and 0.001, respectively. ‘ns’ denotes p-value >0.05, indicating no significant difference.
FITC-conjugated collagen was used to make collagen gel and cells were grown in the gel for 5 days. After that cells were fixed with 4% paraformaldehyde and phalloidin-TRICT was used as counterstaining in the evaluation of the cell body. The angles between fibers and cell membrane were measured by image J.
The alignment of the extracellular matrix (ECM) is a unique characteristic of myofibroblasts, altering the physical properties of the tissue microenvironment and posing a threat to tissue homeostasis during organ fibrosis. […]

[2] = molecular target: T1, Stim1 or Orai1 puncta (Homo sapiens, UniProt Q96D31); assay: Orai1 and Stim1 puncta in HEK293T cells overexpressing CFP-Orai1/Stim1-mCherry after thapsigargin; assay type: cell-based; details: 10 μM pretreatment 30 min, 1 μM thapsigargin 15 min
T1 construct: expressed in transfected cells; host or cells: HEK293T
Experimental: FIG. 1A, FIG. 1B, FIG. 1C, FIG. 1D, FIG. 1E, FIG. 1F, FIG. 1G, FIG. 1H, FIG. 1I, FIG. 1J, FIG. 1K, FIG. 1L, FIG. 1M, and FIG. 1N show WRG-28 and atovaquone (Av) suppress the activation of DDR2 and calcium release-activated calcium (CRAC) channel. FIG. 1A indicates HEK293T cells were transiently overexpressed with DDR2 and then pretreated with different compounds (10 μM), including WRG-28, Av, donepezil hydrochloride (Dh), terazosin hydrochloride (Th), verapamil and flecainide for 30 minutes. Verapamil and flecainide were used as negative control here. After that, cells were treated with 50 μg/mL type I collagen for 12 hours. Cell lysates were harvested and subjected to Western blot analysis with antibodies against phosphotyrosine antibody (clone 4G10), DDR2, and β-actin. […] CRAC channel activity was evaluated by applying 1 μM thapsigargin (Thap.) in a calcium-free solution to deplete the endoplasmic reticulum calcium store, followed by the reintroduction of 2 mM Ca^2+ in an external solution. The concentration of cytosolic calcium ions increases as calcium flows through the CRAC channel, leading to the second peak in cytosolic calcium waves. […] Further analyses are presented in FIG. 1I and FIG. 1J, where the second peak of each wave and rate of entry were analyzed. […] The Orai1 and Stim1 puncta in HEK293T cells overexpressed with CFP-Orai1/Stim1-mCherry were assessed. […]

[3] = system: Jurkat T cells; assay: Cytokine secretion in T cells (ELISA); assay type: cell-based, human; details: PHA/PMA induction, culture medium

T1 sequence (Q96D31 whole entry): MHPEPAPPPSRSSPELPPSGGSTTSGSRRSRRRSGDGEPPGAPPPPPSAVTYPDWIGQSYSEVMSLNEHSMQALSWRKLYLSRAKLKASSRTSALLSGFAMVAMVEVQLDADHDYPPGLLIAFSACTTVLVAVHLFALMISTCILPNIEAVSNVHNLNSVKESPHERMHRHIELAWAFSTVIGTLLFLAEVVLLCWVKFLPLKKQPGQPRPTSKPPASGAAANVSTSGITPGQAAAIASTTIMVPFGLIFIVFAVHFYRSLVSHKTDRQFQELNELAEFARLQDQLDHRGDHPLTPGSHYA

formation of Stim1 or Orai1 puncta induced by store depletion [2]	SMILES	TGF-β1-induced collagen alignment [1]	secretion of IL-2 in T cells [3]
unaffected	CCNS(=O)(=O)c1ccc(COc2ccc3nc4ccc(=O)cc-4oc3c2)cc1 [WRG-28]	reduced	significantly reduced
unaffected	Cc1nnsc1C(=O)Nc1ccc(-n2nc(C(F)(F)F)cc2C(F)(F)F)cc1 [BTP2]	reduced	significantly reduced
